Molecules are shown by their SMILES. Structures can show the parent of a compound that is named as a salt.

Data set [1] is described as follows: Hygroscopicity, cup method (weight change). Type of data set: physicochemical. To be noted: weight-increasing rate, 25° C., 50 to 60% RH, 15 minutes; crystals dried at 40° C. under vacuum; hydrochloride. Here is the method:
Determined by the following cup method. To be specific, about 15 to 20 mg of the sample was put in a cylindrical cup having a diameter of 6 mm and a depth of 6 mm and left standing at a fixed temperature (25° C.) and relative humidity (50 to 60% RH) for 15 minutes to measure a weight change, whereby the hygroscopicity was evaluated.
In the following respective examples, a weight-increasing rate of 0.40% or more is shown by an evaluation criterion that the hygroscopicity is large (−); a weight-increasing rate of 0.20% or more and less than 0.40% is shown by an evaluation criterion that the hygroscopicity is ;intermediate (±); and a weight-increasing rate of less than 0.20% is shown by an evaluation criterion that the hygroscopicity is small: (+).

Data set [2] is described as follows: Average particle diameter, microscopic method (Heywood circle-corresponding diameter). Type of data set: physicochemical. To be noted: 10 typical crystals on photograph, hydrochloride. The text has this: The average particle diameter is shown by a diameter of a circle having the same area as an injected area of the particle, a so-called Heywood diameter (circle-corresponding diameter) according to a microscopic method (injected image). A small amount of the crystals was put on a slide glass, and 1 to 2 drops of a hydrophilic surfactant (sesquioleic acid sorbitan) were fallen thereon to disperse them. It was photographed by means of a polarization microscope (photographing lens: 3.3 magnifications, objective lens: 20 magnifications) equipped with a photographing device. Optional 10 pieces of the typical crystals were selected on the photograph to measure a long diameter and a short diameter thereof An (projected) area of the particle was shown by long diameter×short diameter, and the particle diameter was shown by a diameter of a circle having the same area as that obtained above.

Turning to `COc1cccc2c1C(=O)c1c(O)c3c(c(O)c1C2=O)C[C@@](O)(C(=O)CO)C[C@@H]3O[C@H]1C[C@H](N)[C@H](O)[C@H](C)O1` [Example 49, doxorubicin hydrochloride], the Hygroscopicity result in data set [1] is given as “+ (a weight-increasing rate of less than 0.20% is shown by an evaluation criterion that the hygroscopicity is small: (+))”. The molecule also displayed an Average particle diameter in data set [2] of 71 μm.

In the case of `COc1cccc2c1C(=O)c1c(O)c3c(c(O)c1C2=O)C[C@@](O)(C(=O)CO)C[C@@H]3O[C@H]1C[C@H](N)[C@H](O)[C@H](C)O1` [Example 28, doxorubicin hydrochloride], in data set [1], the Hygroscopicity entry is given as “+ (a weight-increasing rate of less than 0.20% is shown by an evaluation criterion that the hygroscopicity is small: (+))”. This molecule also registered an Average particle diameter in data set [2] of 37 μm.

`COc1cccc2c1C(=O)c1c(O)c3c(c(O)c1C2=O)C[C@@](O)(C(=O)CO)C[C@@H]3O[C@H]1C[C@H](N)[C@H](O)[C@H](C)O1` [Example 19, doxorubicin hydrochloride]: in data set [1], the Hygroscopicity entry is “± (a weight-increasing rate of 0.20% or more and less than 0.40% is shown by an evaluation criterion that the hygroscopicity is ;intermediate (±))”. Further, the Average particle diameter in data set [2] is 17 μm.

On to `COc1cccc2c1C(=O)c1c(O)c3c(c(O)c1C2=O)C[C@@](O)(C(=O)CO)C[C@@H]3O[C@H]1C[C@H](N)[C@H](O)[C@H](C)O1` [Example 32, doxorubicin hydrochloride], for which, in data set [1], the Hygroscopicity result is reported as “+ (a weight-increasing rate of less than 0.20% is shown by an evaluation criterion that the hygroscopicity is small: (+))”. The molecule further displayed an Average particle diameter in data set [2] of 34 μm.

On to `COc1cccc2c1C(=O)c1c(O)c3c(c(O)c1C2=O)C[C@@](O)(C(=O)CO)C[C@@H]3O[C@H]1C[C@H](N)[C@H](O)[C@H](C)O1` [Example 40, doxorubicin hydrochloride], for which the Hygroscopicity result in data set [1] is “± (a weight-increasing rate of 0.20% or more and less than 0.40% is shown by an evaluation criterion that the hygroscopicity is ;intermediate (±))”. Further, the Average particle diameter in data set [2] came out at 18 μm.

In the case of `COc1cccc2c1C(=O)c1c(O)c3c(c(O)c1C2=O)C[C@@](O)(C(=O)CO)C[C@@H]3O[C@H]1C[C@H](N)[C@H](O)[C@H](C)O1` [Example 33, doxorubicin hydrochloride], the Hygroscopicity result in data set [1] was “± (a weight-increasing rate of 0.20% or more and less than 0.40% is shown by an evaluation criterion that the hygroscopicity is ;intermediate (±))”. In data set [2], this molecule returned an Average particle diameter of 25 μm.

With `COc1cccc2c1C(=O)c1c(O)c3c(c(O)c1C2=O)C[C@@](O)(C(=O)CO)C[C@@H]3O[C@H]1C[C@H](N)[C@H](O)[C@H](C)O1` [Example 24, doxorubicin hydrochloride], the Hygroscopicity entry in data set [1] is on record as “+ (a weight-increasing rate of less than 0.20% is shown by an evaluation criterion that the hygroscopicity is small: (+))”. The Average particle diameter in data set [2] is on record as 51 μm.

Take `COc1cccc2c1C(=O)c1c(O)c3c(c(O)c1C2=O)C[C@@](O)(C(=O)CO)C[C@@H]3O[C@H]1C[C@H](N)[C@H](O)[C@H](C)O1` [Example 45, doxorubicin hydrochloride]: the Hygroscopicity result in data set [1] is given as “+ (a weight-increasing rate of less than 0.20% is shown by an evaluation criterion that the hygroscopicity is small: (+))”. The Average particle diameter in data set [2] was found to be 46 μm.

Consider `COc1cccc2c1C(=O)c1c(O)c3c(c(O)c1C2=O)C[C@@](O)(C(=O)CO)C[C@@H]3O[C@H]1C[C@H](N)[C@H](O)[C@H](C)O1` [Example 48, doxorubicin hydrochloride], for which the Hygroscopicity result in data set [1] was “+ (a weight-increasing rate of less than 0.20% is shown by an evaluation criterion that the hygroscopicity is small: (+))”. In data set [2], this molecule displayed an Average particle diameter of 89 μm.

On to `COc1cccc2c1C(=O)c1c(O)c3c(c(O)c1C2=O)C[C@@](O)(C(=O)CO)C[C@@H]3O[C@H]1C[C@H](N)[C@H](O)[C@H](C)O1` [Example 44, doxorubicin hydrochloride], for which the Hygroscopicity result in data set [1] was “+ (a weight-increasing rate of less than 0.20% is shown by an evaluation criterion that the hygroscopicity is small: (+))”. The Average particle diameter in data set [2] stood at 28 μm.

`COc1cccc2c1C(=O)c1c(O)c3c(c(O)c1C2=O)C[C@@](O)(C(=O)CO)C[C@@H]3O[C@H]1C[C@H](N)[C@H](O)[C@H](C)O1` [Example 4, doxorubicin hydrochloride]: in data set [1], the Hygroscopicity entry is recorded as “− (a weight-increasing rate of 0.40% or more is shown by an evaluation criterion that the hygroscopicity is large (−))”. The Average particle diameter in data set [2] was <4 μm.

Turning to `COc1cccc2c1C(=O)c1c(O)c3c(c(O)c1C2=O)C[C@@](O)(C(=O)CO)C[C@@H]3O[C@H]1C[C@H](N)[C@H](O)[C@H](C)O1` [Example 38, doxorubicin hydrochloride], the Hygroscopicity result in data set [1] is recorded as “+ (a weight-increasing rate of less than 0.20% is shown by an evaluation criterion that the hygroscopicity is small: (+))”. Also, in data set [2], the Average particle diameter turned out to be 28 μm.

Turning to `COc1cccc2c1C(=O)c1c(O)c3c(c(O)c1C2=O)C[C@@](O)(C(=O)CO)C[C@@H]3O[C@H]1C[C@H](N)[C@H](O)[C@H](C)O1` [Example 30, doxorubicin hydrochloride], the Hygroscopicity entry in data set [1] is “+ (a weight-increasing rate of less than 0.20% is shown by an evaluation criterion that the hygroscopicity is small: (+))”. In data set [2], this molecule had an Average particle diameter of 39 μm.

In the case of `COc1cccc2c1C(=O)c1c(O)c3c(c(O)c1C2=O)C[C@@](O)(C(=O)CO)C[C@@H]3O[C@H]1C[C@H](N)[C@H](O)[C@H](C)O1` [Example 16, doxorubicin hydrochloride], the Hygroscopicity result in data set [1] was “± (a weight-increasing rate of 0.20% or more and less than 0.40% is shown by an evaluation criterion that the hygroscopicity is ;intermediate (±))”. Moreover, the Average particle diameter in data set [2] is given as <4 μm.

`COc1cccc2c1C(=O)c1c(O)c3c(c(O)c1C2=O)C[C@@](O)(C(=O)CO)C[C@@H]3O[C@H]1C[C@H](N)[C@H](O)[C@H](C)O1` [Example 34, doxorubicin hydrochloride]: in data set [1], the Hygroscopicity result was “± (a weight-increasing rate of 0.20% or more and less than 0.40% is shown by an evaluation criterion that the hygroscopicity is ;intermediate (±))”. The same molecule returned an Average particle diameter in data set [2] of 23 μm.

On to `COc1cccc2c1C(=O)c1c(O)c3c(c(O)c1C2=O)C[C@@](O)(C(=O)CO)C[C@@H]3O[C@H]1C[C@H](N)[C@H](O)[C@H](C)O1` [Example 42, doxorubicin hydrochloride], for which, in data set [1], the Hygroscopicity entry is “+ (a weight-increasing rate of less than 0.20% is shown by an evaluation criterion that the hygroscopicity is small: (+))”. In addition, the Average particle diameter in data set [2] stood at 34 μm.

As to `COc1cccc2c1C(=O)c1c(O)c3c(c(O)c1C2=O)C[C@@](O)(C(=O)CO)C[C@@H]3O[C@H]1C[C@H](N)[C@H](O)[C@H](C)O1` [Example 13, doxorubicin hydrochloride], the Hygroscopicity entry in data set [1] is “± (a weight-increasing rate of 0.20% or more and less than 0.40% is shown by an evaluation criterion that the hygroscopicity is ;intermediate (±))”. In addition, in data set [2], the Average particle diameter was <4 μm.

For `COc1cccc2c1C(=O)c1c(O)c3c(c(O)c1C2=O)C[C@@](O)(C(=O)CO)C[C@@H]3O[C@H]1C[C@H](N)[C@H](O)[C@H](C)O1` [Example 23, doxorubicin hydrochloride], the Hygroscopicity result in data set [1] was “± (a weight-increasing rate of 0.20% or more and less than 0.40% is shown by an evaluation criterion that the hygroscopicity is ;intermediate (±))”. Further, the Average particle diameter in data set [2] came to 39 μm.

In the case of `COc1cccc2c1C(=O)c1c(O)c3c(c(O)c1C2=O)C[C@@](O)(C(=O)CO)C[C@@H]3O[C@H]1C[C@H](N)[C@H](O)[C@H](C)O1` [Example 22, doxorubicin hydrochloride], the Hygroscopicity entry in data set [1] is on record as “+ (a weight-increasing rate of less than 0.20% is shown by an evaluation criterion that the hygroscopicity is small: (+))”. In data set [2], the Average particle diameter stood at 47 μm.

For the molecule `COc1cccc2c1C(=O)c1c(O)c3c(c(O)c1C2=O)C[C@@](O)(C(=O)CO)C[C@@H]3O[C@H]1C[C@H](N)[C@H](O)[C@H](C)O1` [Example 59, doxorubicin hydrochloride], in data set [1], the Hygroscopicity result was “− (a weight-increasing rate of 0.40% or more is shown by an evaluation criterion that the hygroscopicity is large (−))”. The Average particle diameter in data set [2] is <4 μm.

Turning to `COc1cccc2c1C(=O)c1c(O)c3c(c(O)c1C2=O)C[C@@](O)(C(=O)CO)C[C@@H]3O[C@H]1C[C@H](N)[C@H](O)[C@H](C)O1` [Example 35, doxorubicin hydrochloride], the Hygroscopicity entry in data set [1] was “± (a weight-increasing rate of 0.20% or more and less than 0.40% is shown by an evaluation criterion that the hygroscopicity is ;intermediate (±))”. In addition, the Average particle diameter in data set [2] came to 20 μm.
